Values quoted from earlier work in article PMC8711005, “Phase 1 Dose-Escalation Study of Plasma Kallikrein Inhibitor THR-149 for the Treatment of Diabetic Macular Edema” (Translational Vision Science & Technology, 2021).

Tested on: subjects with center-involved DME
Conditions: single IVT injection, 14 subjects with center-involved DME, Month 3
From the text: A recent phase I study of another PKal inhibitor, KVD001, enrolled 14 subjects with center-involved DME who had received prior anti-VEGF treatment.[30] Baseline demographics were similar to those in the current study, with some notable differences in baseline ocular characteristics, including higher baseline BCVA and lower CST relative to those enrolled in our study. The maximum BCVA increase following a single IVT injection of KVD001 was 4.1 ETDRS letters at Month 3, with a corresponding mean reduction of 23 µm in CST. Rescue treatment was allowed; however, the frequency and imputation method ...

CCOc1ccc(C[C@@H](NC(=O)c2ccccc2)C(=O)N[C@@H](Cc2ccccc2)C(=O)NCc2ccc(CN)cc2)cc1 [KVD001]
Maximum BCVA increase: 4.1 ETDRS letters | Mean reduction in CST: 23 µm
